The source of these data is BindingDB's records for doi:10.1021/jm00037a006 (Abbott Laboratories, 1994).

Square brackets hold non-standard residues; d marks the D form. Peptide text beside a SMILES is read from it. * marks the point of attachment. Acryloyl(3-(3-pyridyl),E) = O=C(/C=C/c1cccnc1)*; NMeF = CN[C@@H](Cc1ccccc1)C(=O)O; NMeD = CN[C@@H](CC(=O)O)C(=O)O; Boc = CC(C)(C)OC(=O)*

The test deals with Gastrin/cholecystokinin type B receptor (Cavia porcellus). The test is described as follows: In vitro binding for half maximal inhibition of [125I]- cholecystokinin type B receptor in guinea pig cortex.

Broadly, the IC50 is the point on the concentration scale where inhibition reaches its midpoint. A higher IC50 goes with weaker potency in that assay. Molecule `CN(C(=O)[C@H](CCCCNC(=O)/C=C/c1cccnc1)NC(=O)[C@H](Cc1c[nH]c2ccccc12)NC(=O)OC(C)(C)C)[C@@H](CC(=O)O)C(=O)N(C)[C@@H](Cc1ccccc1)C(N)=O` [(S)-3-{[(S)-2-[2-tert-Butoxycarbonylamino-3-(1H-indol-3-yl)-propionylamino]-6-((E)-3-pyridin-3-yl-acryloylamino)-hexanoyl]-methyl-amino}-N-((S)-1-carbamoyl-2-phenyl-ethyl)-N-methyl-succinamic acid] (Boc-WK(Acryloyl(3-(3-pyridyl),E))[NMeD][NMeF]-NH2) registered an IC50 of 22.7 µM.
